Experimental findings from PubChem BioAssay (NCI) are described below.

Several values for one entry are separate records, joined by “and”; a condition that tells them apart may be missing. Identical values can stand only once.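 Each compound was tested at five concentrations against cells in 96-well plates for 48 hours. Abbreviation: GI50, concentration required for 50% inhibition of growth. TGI denotes the concentration required for complete inhibition of growth.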

Some test systems named below: KM12 colon; NCI-H23 lung; RPMI-8226 leukemia; RXF 393 renal; SNB-19 CNS; UO-31 renal; A498 renal; SR leukemia; NCI/ADR-RES ovarian.
Holding throughout (test): NCI-60 cell line screen, 48 h

For the molecule `COc1ccc2c(c1)[n+](=O)c(C(C)=O)c(C)n2[O-]`, the TGI in the experiment with KM12 colon, in the experiment with NCI-H23 lung, in the experiment with RPMI-8226 leukemia, in the experiment on RXF 393 renal, in the experiment with SNB-19 CNS and in the experiment with UO-31 renal was over 100 µM each time.
For the molecule `NNC(=O)N/N=C1\CN(c2ccc(Cl)cc2Cl)C(=O)C(=O)C1c1nc2ccccc2o1` (stereo not drawn), the TGI in the experiment on A498 renal, in the experiment with KM12 colon, in the experiment with NCI-H23 lung, with RPMI-8226 leukemia, with SNB-19 CNS and in the experiment with SR leukemia was over 100 µM in each case. This molecule also returned a TGI in the experiment with UO-31 renal of over 100 µM.
As for `CCOc1ccccc1NC(=O)C1=C(C)NC(C)=C(C(=O)Nc2ccccc2OCC)C1c1ccc([N+](=O)[O-])cc1`, the TGI with A498 renal, in the experiment on KM12 colon, in the experiment with NCI-H23 lung, in the experiment on RPMI-8226 leukemia, in the experiment on RXF 393 renal and in the experiment with SNB-19 CNS was over 100 µM throughout. Besides, the TGI in the experiment with SR leukemia and in the experiment with UO-31 renal was over 100 µM each time.
Take `Nc1nc(=S)[nH]c(C(=O)Nc2nccs2)c1-c1ccccc1`: the TGI in the experiment on A498 renal, in the experiment on KM12 colon, in the experiment with NCI-H23 lung, in the experiment with RPMI-8226 leukemia, in the experiment with RXF 393 renal and with SNB-19 CNS was over 100 µM in each case. For the same molecule, the TGI in the experiment on SR leukemia and with UO-31 renal was over 100 µM in each case.
For the molecule `CC(=O)OCC1OC(n2c(=S)n(-c3ccccc3)c(=O)c3cc(Br)cc(Br)c32)C(OC(C)=O)C(OC(C)=O)C1OC(C)=O` (stereo not drawn), the TGI with A498 renal is over 100 µM; in the experiment with KM12 colon, over 100 µM; in the experiment with NCI-H23 lung, 92.1 µM and > 100 µM; with RPMI-8226 leukemia, over 100 µM; in the experiment with RXF 393 renal, 76.3 µM and > 100 µM; in the experiment on SNB-19 CNS it was 85.5 µM and > 100 µM. The TGI in the experiment on SR leukemia and with UO-31 renal was over 100 µM each time. The GI50 is 19.1 µM and 72.3 µM in the experiment with NCI-H23 lung; 33.3 µM in the experiment on RPMI-8226 leukemia; 19.4 µM and 64.2 µM with RXF 393 renal; 28.5 µM and 71.1 µM with SNB-19 CNS; over 100 µM in the experiment on SR leukemia; > 100 µM and 42.9 µM with UO-31 renal.
In the case of `CCCCCCCCCCCCCCC(C)CCC(=O)O` (stereo not drawn), the TGI with A498 renal, with KM12 colon, with NCI-H23 lung, in the experiment with RXF 393 renal and in the experiment on SNB-19 CNS was over 100 µM in each case.
As for `COCC1N=C(c2cc(OC)c(OC)c(OC)c2-c2cc3c(cc2[C@H](C)O)OCO3)O[C@H]1c1ccccc1` (stereo partly drawn), the TGI with KM12 colon, in the experiment with NCI-H23 lung, in the experiment with RPMI-8226 leukemia, in the experiment on SNB-19 CNS and in the experiment with UO-31 renal was over 100 µM in each case.
On to `O=C(CC1=Nc2nnc(-c3nnc4n3C(=O)C(CC(=O)C3CC3)=N4)n2C1=O)C1CC1`, for which the TGI in the experiment with A498 renal, with KM12 colon, in the experiment on NCI-H23 lung, in the experiment on RPMI-8226 leukemia, in the experiment with RXF 393 renal and in the experiment with SNB-19 CNS was over 100 µM each time. Further, in the experiment with UO-31 renal, the TGI was over 100 µM.
Consider `c1ccc2c3c([nH]c2c1)C1C2CCCCN2C(c2ccncc2)N1CC3` (stereo not drawn), for which the TGI with KM12 colon was over 100 µM; in the experiment with NCI-H23 lung it was over 100 µM; in the experiment on RPMI-8226 leukemia, 87.3 µM; with RXF 393 renal it was 83.4 µM; in the experiment with SNB-19 CNS, 65.3 µM; in the experiment on SR leukemia, over 100 µM. The same molecule gave a TGI with UO-31 renal of 34.8 µM.
In the case of `OCC(O)C(O)C(O)C(O)c1nn[nH]n1` (stereo not drawn), the TGI in the experiment on KM12 colon, in the experiment on NCI-H23 lung, in the experiment with RPMI-8226 leukemia, in the experiment on SR leukemia and in the experiment on UO-31 renal was over 100 µM throughout.
Take `Clc1ccc2c(NCCCN3CCN(c4nc(N5CCOCC5)nc5ccccc45)CC3)ccnc2c1`: the GI50 in the experiment with A498 renal was 1.57 µM; with NCI/ADR-RES ovarian it was 2.23 µM; in the experiment with RPMI-8226 leukemia, 1.15 µM; in the experiment with RXF 393 renal it was 1.65 µM; in the experiment on SR leukemia it was 1.35 µM. Also, the TGI was found to be 3.11 µM in the experiment on A498 renal; 4.73 µM in the experiment with NCI/ADR-RES ovarian; 3.46 µM in the experiment with RPMI-8226 leukemia; 3.1 µM in the experiment on RXF 393 renal; 4.57 µM in the experiment with SR leukemia.
In the case of `O=C(Nc1ccc(C(F)(F)F)cc1[N+](=O)[O-])c1cccnc1`, the TGI in the experiment on A498 renal, with KM12 colon, in the experiment with NCI-H23 lung, with NCI/ADR-RES ovarian, in the experiment with RPMI-8226 leukemia and in the experiment on SNB-19 CNS was over 100 µM throughout. The TGI in the experiment with SR leukemia and in the experiment on UO-31 renal was over 100 µM in each case.
Consider `Cn1ccnc1C(=O)/C=C/c1ccc(C(=O)Nc2c(F)c(F)c(F)c(F)c2F)cc1`, for which the GI50 is 1.36 µM in the experiment with A498 renal; 1.14 µM in the experiment on KM12 colon; 2.01 µM with NCI-H23 lung; 3.09 µM in the experiment on NCI/ADR-RES ovarian; 0.505 µM in the experiment on RPMI-8226 leukemia; 1.66 µM in the experiment on RXF 393 renal. Also, the values for the GI50 with SNB-19 CNS, with SR leukemia and in the experiment on UO-31 renal were 1.56 µM, 0.339 µM and 1.47 µM, respectively. Further, the TGI with A498 renal worked out at 3.16 µM; in the experiment with KM12 colon, 2.71 µM; with NCI-H23 lung, 5.35 µM; in the experiment with NCI/ADR-RES ovarian it was 12.9 µM; in the experiment with RPMI-8226 leukemia, 2.54 µM; with RXF 393 renal, 3.22 µM. In addition, the TGI in the experiment with SNB-19 CNS came to 3.24 µM; with SR leukemia, 2.26 µM; in the experiment with UO-31 renal, 2.79 µM.
For the molecule `CC(=O)[O-].[Mn+3].[O-]c1ccc(Cl)cc1C=NCCN=Cc1cc(Cl)ccc1[O-]`, the GI50 in the experiment on A498 renal, in the experiment on KM12 colon, with NCI-H23 lung, in the experiment with SNB-19 CNS and in the experiment with UO-31 renal was over 100 µM each time. The TGI with A498 renal, in the experiment with KM12 colon, in the experiment on NCI-H23 lung, in the experiment with SNB-19 CNS and in the experiment with UO-31 renal was over 100 µM throughout.
